From patent US8445461B2, “Pharmaceutical composition for meniere's disease” (Setsuko Takeda, priority 2007, dated 2013)

System: experimental endolymphatic hydrops
Experiment: Endolymphatic hydrops decompression effect: IR-L, IR-S and regression lines in the operated ear
Assay type: in vivo, guinea pigs
Settings: for Regression line IR-S vs IR-L: Y-intercept / Regression line IR-S vs IR-L: slope: operated ears; for Regression line IR-S vs IR-L: Y-intercept / Regression line IR-S vs IR-L: slope / IR-L (%) increase ratio of the length of Reissner's membrane / IR-S (%) increase ratio of the cross-sectional area of the scala media: active agent 2.8 g/kg oral; for IR-L (%) increase ratio of the length of Reissner's membrane / IR-S (%) increase ratio of the cross-sectional area of the scala media: operated side
Procedure: The endolymphatic hydrops-decompression effect of saccharides or sugar alcohols was evaluated by assaying as below in triplicate. Firstly, guinea pigs received the surgical obliteration of the endolymphatic sac in the left ear to prepare “experimental model animals with endolymphatic hydrops”. The surgical obliteration of the endolymphatic sac was carried out by burning the extraskeletal portion in the endolymphatic sac with a bipolar electrocoagulator. An endolymphatic sac plays an important role in the absorption of endolymphatic fluid. The inhibition of absorption of endolymphatic fluid was caused by burning the endolymphatic sac to prepare an experimental endolymphatic hydrops. Those hydrops are progressively formed. The size of hydrops becomes constant 2 weeks to month after the surgery and maintained for several months. In detail, see Non-patent Reference 8 for the surgery.
After 1 month, they were divided into 3 groups: Group 2-1 (groups 1-6), 60 animals; Group 2-2 (groups 7-10), 40 animals; and Group 2-3 (groups 11-20), […]. The animals in Group 2-1 received saccharides or sugar alcohols alone (Reference Example 5). The animals in Group 2-2 orally received saccharides or sugar alcohols added polysaccharides. The animals in Group 2-3 received other combinations of saccharides or sugar alcohols added polysaccharides. Animals were sacrificed after the oral administration and the observation and the assessment the gastrointestinal condition, and observed the morphological change of the cochlea mainly in the operated side (left side), in particular of the endolymphatic hydrops decompression effect.
I were obtained left sides of the temporal bones immediately following fixation and kept them in 10% formalin solution for 10 days or more. They were decalcified with 5% trichloroacetic acid and dehydrated with alcohol in increasing concentration, then embedded in paraffin and celloidin. The prepared blocks were cut serially in the horizontal plane. The mid-modiolar sections were stained in hematoxylin and eosin and studied under a light microscope. For the quantitative assessment of changes of the endolymphatic space, the change ratios of the length of Reissner's membrane and the cross-sectional area of the scala media in each turn were measured from the mid-modiolar sections of the cochlea.
From these parameters, the increase ratios (%) of the length of Reissner's membrane (IR-L) and the cross-sectional area (%) of the scala media (IR-S) of a total of four turns were calculated according to the equation as described below:
The increase ratio of the length of Reissner's membrane (IR-L)=100×Σ(Lx−L*x)/ΣL*x (x: first, second, third and fourth turns)
The increase ratio of the cross-section area of the scala media (IR-S)=100×Σ(Sx−S*x)/ΣS*x (x: first, second, third and fourth turns)
Since almost no difference is shown in the regression lines of each group, it cannot be understood that there is the decompression effect of erythritol alone. When endolymphatic hydrops is formed, the cross-sectional area of scala media and the length of Reissner's membrane will increase. It can be assumed from FIG. 1 that there is statistically a primary correlation between both of them in the operated side in the control group. The regression lines are; IR-S (distilled water)=4.011+1.212*IR-L (distilled water); R2=0.987, IR-S (1 hour after)=5.409+1.1*IR-L (1 hour after); R2=0.903, IR-S (2 hours after)=1.125+0.992*IR-L (2 hours after); R2=0.98, IR-S (3 hours after)=2.407+1.309*IR-L (3 hours after); R2=0.974, IR-S (6 hours after)=7.36+1.147*IR-L (6 hours after); R2=0.895, IR-S (12 hours after)=8.089+1.152*IR-L (12 hours after); R2=0.918.
The difference of decompression effect on endolymphatic hydrops depending on dose of pectin added and time-course of the decompression effect can hardly determined by comparing and analyzing the average and standard deviation of IR-L and IR-S in the operated side in each groups. […]

[1] = alone or with additive, 3 hours after
[2] = alone or with additive, 6 hours after
[3] = alone or with additive, 12 hours after
[4] = alone or with additive, perfusion 3 hours after
[5] = alone or with additive, perfusion 6 hours after
[6] = alone or with additive, perfusion 12 hours after

SMILES: OC[C@@H](O)[C@@H](O)CO [Erythritol, erythritol]
- Difference of regression lines from control (ANCOVA test) (erythritol 2.8 g/kg alone, E1H to E12H groups (1 to 12 hours after)): no significant difference
- Regression line IR-S vs IR-L: Y-intercept [1]: 2.407
- Regression line IR-S vs IR-L: slope [1]: 1.309
- Regression line IR-S vs IR-L: Y-intercept [2]: 7.36
- Regression line IR-S vs IR-L: slope [2]: 1.147
- Regression line IR-S vs IR-L: Y-intercept [3]: 8.089
- Regression line IR-S vs IR-L: slope [3]: 1.152
- Regression line IR-S vs IR-L: Y-intercept (1 hour after): 5.409
- Regression line IR-S vs IR-L: slope (1 hour after): 1.1
- Regression line IR-S vs IR-L: Y-intercept (2 hours after): 1.125
- Regression line IR-S vs IR-L: slope (2 hours after): 0.992
- IR-L (%) increase ratio of the length of Reissner's membrane [4]: 23.2 ± 16.9%
- IR-S (%) increase ratio of the cross-sectional area of the scala media [4]: 32.7 ± 22.4%
- IR-L (%) increase ratio of the length of Reissner's membrane [5]: 37.8 ± 24.8%
- IR-S (%) increase ratio of the cross-sectional area of the scala media [5]: 51.4 ± 38.1%
- IR-L (%) increase ratio of the length of Reissner's membrane [6]: 37.5 ± 18.7%
- IR-S (%) increase ratio of the cross-sectional area of the scala media [6]: 51.4 ± 22.5%
- IR-L (%) increase ratio of the length of Reissner's membrane (perfusion 1 hour after): 24.2 ± 20.2%
- IR-S (%) increase ratio of the cross-sectional area of the scala media (perfusion 1 hour after): 32.1 ± 23.3%
- IR-L (%) increase ratio of the length of Reissner's membrane (perfusion 2 hours after): 29.4 ± 25.5%
- IR-S (%) increase ratio of the cross-sectional area of the scala media (perfusion 2 hours after): 30.2 ± 26.3%
